Laboratory results taken from the supplement of paper PMC5908809.

Columns and labels:
[1] = tested on: normal NK cells expanded with K562-aAPC; assay: percent inhibition of viability; higher = more inhibition; conditions: 72 h, IL-2 2.5 ng/mL
Method: (§1)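 Drug sensitivity and resistance testing on K562-aAPC-expanded normal NK cells: 5 concentrations (10-fold steps over a 10,000-fold range), 72 h at 37 °C, viability by CellTiter-Glo normalised to DMSO and benzethonium chloride controls; DSS from the fitted curve.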

NKL (IL-2 2.5 ng/mL) [2] = assay: drug sensitivity score (DSS) (DSS units); higher = more sensitive; extreme values may be limits of the assay; conditions: 72 h
NK-YS (IL-2 2.5 ng/mL) [3] = assay: as above; conditions: 72 h
[4] = tested on: normal primary NK cells, pool 1 (3 donors) (IL-2 2.5 ng/mL); assay: as above; conditions: 72 h
DERL-7 (IL-2 2.5 ng/mL) [5] = assay: as above; conditions: 72 h
[6] = tested on: normal primary NK cells, pool 2 (3 donors) (IL-2 2.5 ng/mL); assay: as above; conditions: 72 h
[7] = tested on: normal primary NK cells, pool 3 (3 donors) (IL-2 2.5 ng/mL); assay: as above; conditions: 72 h
[8] = tested on: normal primary NK cells, pool 1 (3 donors), resting (IL-2 0 ng/mL); assay: as above; conditions: 72 h
KAI3 (IL-2 2.5 ng/mL) [9] = assay: as above; conditions: 72 h
YT (IL-2 2.5 ng/mL) [10] = assay: as above; conditions: 72 h
SNK-6 (IL-2 2.5 ng/mL) [11] = assay: as above; conditions: 72 h
KHYG-1 (IL-2 2.5 ng/mL) [12] = assay: as above; conditions: 72 h
NK-92 (IL-2 2.5 ng/mL) [13] = assay: as above; conditions: 72 h
IMC-1 (IL-2 20 ng/mL) [14] = assay: as above; conditions: 72 h
NKL (IL-2 2.5 ng/mL) [15] = assay: percent inhibition of viability; higher = more inhibition; conditions: 72 h
NK-YS (IL-2 2.5 ng/mL) [16] = assay: as above; conditions: 72 h
[17] = tested on: normal primary NK cells, pool 1 (3 donors) (IL-2 2.5 ng/mL); assay: as above; conditions: 72 h
DERL-7 (IL-2 2.5 ng/mL) [18] = assay: as above; conditions: 72 h
[19] = tested on: normal primary NK cells, pool 2 (3 donors) (IL-2 2.5 ng/mL); assay: as above; conditions: 72 h
[20] = tested on: normal primary NK cells, pool 3 (3 donors) (IL-2 2.5 ng/mL); assay: as above; conditions: 72 h
[21] = tested on: normal primary NK cells, pool 1 (3 donors), resting (IL-2 0 ng/mL); assay: as above; conditions: 72 h
KAI3 (IL-2 2.5 ng/mL) [22] = assay: as above; conditions: 72 h
YT (IL-2 2.5 ng/mL) [23] = assay: as above; conditions: 72 h
SNK-6 (IL-2 2.5 ng/mL) [24] = assay: as above; conditions: 72 h
KHYG-1 (IL-2 2.5 ng/mL) [25] = assay: as above; conditions: 72 h
NK-92 (IL-2 2.5 ng/mL) [26] = assay: as above; conditions: 72 h
IMC-1 (IL-2 20 ng/mL) [27] = assay: as above; conditions: 72 h
[28] = tested on: normal NK cells expanded with K562-aAPC; assay: drug sensitivity score (DSS) (DSS units); higher = more sensitive; extreme values may be limits of the assay; conditions: 72 h; IL-2 2.5 ng/mL
Method: as §1

CS(=O)(=O)OCCCCOS(C)(=O)=O [Busulfan] (max concentration tested 100000 nM)
percent inhibition of viability [%]
Conditions | 10 nM | 100 nM | 1000 nM | 10000 nM | 100000 nM
DERL-7 (IL-2 2.5 ng/mL) [18] | -0.3 | 0.71 | -1.86 | -6.29 | 37.3
IMC-1 (IL-2 20 ng/mL) [27] | -7.58 | 1.98 | -0.95 | 5.86 | 97.7
KAI3 (IL-2 2.5 ng/mL) [22] | -3.8 | 4.61 | -6.45 | 7.92 | 92.1
KHYG-1 (IL-2 2.5 ng/mL) [25] | -5.97 | 2.86 | -2.89 | 5.78 | 101
NK-92 (IL-2 2.5 ng/mL) [26] | -12.9 | 1.55 | 8.88 | -9.97 | 98.6
NK-YS (IL-2 2.5 ng/mL) [16] | -7.3 | -2.96 | -5.68 | 2.67 | 93.2
NKL (IL-2 2.5 ng/mL) [15] | -14.8 | -1.78 | -0.6 | 5.56 | 99.4
SNK-6 (IL-2 2.5 ng/mL) [24] | 6.87 | 18.8 | 18.7 | 29.4 | 98
YT (IL-2 2.5 ng/mL) [23] | -5.22 | 1.87 | -2.46 | -4.04 | 47.7
[1] | -2.86 | 1.34 | 1.8 | 12.1 | 11.6
[17] | 0.77 | -7.48 | -4.93 | -16 | -3.43
[19] | -6.89 | -5.87 | 7.32 | -4.08 | 50.9
[20] | 0.71 | -2.78 | 10.5 | -3.81 | 35.4
[21] | 9.92 | -5.43 | 4.09 | -28.6 | -11.5

Conditions | drug sensitivity score
DERL-7 (IL-2 2.5 ng/mL) [5] | 1.44
IMC-1 (IL-2 20 ng/mL) [14] | 6.28
KAI3 (IL-2 2.5 ng/mL) [9] | 6.36
KHYG-1 (IL-2 2.5 ng/mL) [12] | 6.48
NK-92 (IL-2 2.5 ng/mL) [13] | 4.82
NK-YS (IL-2 2.5 ng/mL) [3] | 5.53
NKL (IL-2 2.5 ng/mL) [2] | 6.32
SNK-6 (IL-2 2.5 ng/mL) [11] | 8.82
YT (IL-2 2.5 ng/mL) [10] | 2.18
[4] | 0
[6] | 2.38
[7] | 1.42
[8] | 0
[28] | 0.67

O=C(O)CCCCC(CCSCc1ccccc1)SCc1ccccc1 (configuration not stated) [CPI-613] (max concentration tested 10000 nM)
percent inhibition of viability [%]
Conditions | 1 nM | 10 nM | 100 nM | 1000 nM | 10000 nM
DERL-7 (IL-2 2.5 ng/mL) [18] | 0.05 | -0.43 | -0.74 | -7.69 | 0.16
IMC-1 (IL-2 20 ng/mL) [27] | -2.98 | -1.62 | -2.71 | -2.84 | 9.03
KAI3 (IL-2 2.5 ng/mL) [22] | 2.88 | -5.51 | 1.38 | 3.07 | 13.6
KHYG-1 (IL-2 2.5 ng/mL) [25] | -0.71 | -6.53 | -1.09 | 2.22 | 14.3
NK-92 (IL-2 2.5 ng/mL) [26] | -12.9 | -8.45 | -13 | 17.1 | 13.7
NK-YS (IL-2 2.5 ng/mL) [16] | -0.06 | -3.64 | -3.63 | 4.79 | 12.5
NKL (IL-2 2.5 ng/mL) [15] | -9.11 | -4.72 | -5.85 | 9.97 | -1.95
SNK-6 (IL-2 2.5 ng/mL) [24] | 2.68 | 9.26 | 7.02 | 3.27 | 15.4
YT (IL-2 2.5 ng/mL) [23] | -4.82 | -6.21 | -4.86 | 4.79 | 13.6
[1] | -7.1 | -6.01 | -4.94 | -0.06 | 8.33
[17] | -0.75 | 13.6 | 2.91 | 3.14 | 0.88
[19] | -4.63 | 4.64 | 5.89 | 2.06 | 9.6
[20] | -7.27 | -0.78 | 1.21 | 3.31 | 2.34
[21] | -1.85 | 9.03 | 13.2 | 15.7 | 14.9

Conditions | drug sensitivity score
DERL-7 (IL-2 2.5 ng/mL) [5] | 0
IMC-1 (IL-2 20 ng/mL) [14] | 0
KAI3 (IL-2 2.5 ng/mL) [9] | 0.36
KHYG-1 (IL-2 2.5 ng/mL) [12] | 0.38
NK-92 (IL-2 2.5 ng/mL) [13] | 1.68
NK-YS (IL-2 2.5 ng/mL) [3] | 0.31
NKL (IL-2 2.5 ng/mL) [2] | 0
SNK-6 (IL-2 2.5 ng/mL) [11] | 0.07
YT (IL-2 2.5 ng/mL) [10] | 0.45
[4] | 0
[6] | 0
[7] | 0
[8] | 3.6
[28] | 0

C#Cc1cccc(Nc2ncnc3cc(OC)c(OCCCCCCC(=O)NO)cc23)c1 [CUDC-101] (max concentration tested 10000 nM)
percent inhibition of viability [%]
Conditions | 1 nM | 10 nM | 100 nM | 1000 nM | 10000 nM
DERL-7 (IL-2 2.5 ng/mL) [18] | -3.07 | -2.96 | 19.3 | 100 | 101
IMC-1 (IL-2 20 ng/mL) [27] | -4.07 | -5.13 | -1.06 | 48.9 | 101
KAI3 (IL-2 2.5 ng/mL) [22] | -3.15 | 0.88 | 27.8 | 77.2 | 105
KHYG-1 (IL-2 2.5 ng/mL) [25] | 1.82 | 3.01 | 36.4 | 99.1 | 106
NK-92 (IL-2 2.5 ng/mL) [26] | 9.73 | -1.07 | 19.2 | 85.7 | 105
NK-YS (IL-2 2.5 ng/mL) [16] | -4.37 | 0.36 | 0.68 | 57.3 | 105
NKL (IL-2 2.5 ng/mL) [15] | -15.6 | -12.1 | 1.83 | 90.5 | 108
SNK-6 (IL-2 2.5 ng/mL) [24] | 11.7 | 10.8 | 24.7 | 78.1 | 100
YT (IL-2 2.5 ng/mL) [23] | 0.23 | 0.94 | 9.37 | 95.4 | 106
[1] | -2.26 | 1.39 | 1.83 | 75.4 | 101
[17] | -3.28 | -4.06 | 12.8 | 88.8 | 98.8
[19] | -9.31 | -5.49 | 9.37 | 84.5 | 97
[20] | -12 | 1.9 | 2.2 | 82.8 | 99.5
[21] | 10.4 | 0.86 | 30.2 | 78.6 | 92.4

Conditions | drug sensitivity score
DERL-7 (IL-2 2.5 ng/mL) [5] | 21.1
IMC-1 (IL-2 20 ng/mL) [14] | 11.6
KAI3 (IL-2 2.5 ng/mL) [9] | 17.9
KHYG-1 (IL-2 2.5 ng/mL) [12] | 22.6
NK-92 (IL-2 2.5 ng/mL) [13] | 18.1
NK-YS (IL-2 2.5 ng/mL) [3] | 12.4
NKL (IL-2 2.5 ng/mL) [2] | 16.5
SNK-6 (IL-2 2.5 ng/mL) [11] | 17.6
YT (IL-2 2.5 ng/mL) [10] | 18.8
[4] | 17.9
[6] | 16.7
[7] | 15.3
[8] | 18.1
[28] | 14.3
